# Measurements from US20130071487A1, “XENON-BASED INHALABLE DRUG FOR PREVENTING ADDICTION RELAPSES IN HUMANS” (L'Air Liquide, Societe Anonyme pour l'Etude et …, priority 2010, published 2013).
# Key:
# [1] = system: alcohol consumption after deprivation; assay: Alcohol deprivation effect model (EAD); format: in vivo, male Wistar rats; conditions: rat; for effect on alcohol consumption after deprivation (consumption curve versus control) / difference in area under curve versus control group N2/O2: EAD model; for effect on alcohol consumption after deprivation (consumption curve versus control): 50%/50% gas/O2, FIG. 2 and FIG. 3; for difference in area under curve versus control group N2/O2: 50%/50% gas/O2, control 16.34±0.9 g/kg*day; for area under curve of total ethanol consumption: two 1 hour inhalation exposures to 50%/50% gas/O2 mixture, consumption measured daily for 6 post-abstinence days, control N2/O2 16.34±0.9
# From the text: The alcohol deprivation model (EAD) comprises habituating the animals to consumption of alcohol for a period of 8 weeks, followed by a period of deprivation of 2 weeks, during which alcohol was withdrawn. This cycle is repeated 8 times. After a period of deprivation, access to alcohol causes a significant but temporary increase in alcohol consumption compared to the reference level. This model is ideal for studying behavior during relapse. It was validated with nacamprosate and naltrexone.
# The following experimental protocol was followed.
# 16 male Wistar rats have free and continuous access to 2 feeding bottles, one containing tap water and the other containing 5%, 10% and 20% ethanol (vol./ vol.) in their cages.
# The first two-week deprivation period is introduced after 8 weeks of continuously available alcohol, as illustrated in FIG. 1.
# After this deprivation period, the rats will have access to alcohol and again to at least 2 more randomly introduced periods of deprivation.
# All the animals are divided into 2 groups (8 rats/group) so that for the mean baseline (week 23), the total alcohol consumption will be essentially the same in each group.
# On the last day of week 25 at about 9 am, […] animals are exposed to the Xe/O2 (50%/50%) gaseous mixture for 1 hour.
# The control group is exposed to N2/O2 (50%/50%). The following day at 9 am all the animals are exposed for a second time to these same gaseous mixtures for 1 hour.
# The exposures to the gaseous mixture are represented by two arrows in FIG. 2.
# Following this last exposure, the bottles of alcohol will again be offered (post-abstinence days).
# Following exposures to the different gases, the total consumption of ethanol (g/kg of body weight) is measured daily at about 10 am, for 6 days.
# [2] = system: stimuli-induced alcoholic relapse; assay: Stimuli-induced alcoholic relapse model; format: in vivo, male Wistar rats; conditions: rat, 1 hour gas exposure 24 hours and 3 hours before the relapse test, FIG. 5
# Protocol: Another animal model well-established in the literature was used to evaluate the anti-relapse effects of xenon, namely the stimuli-induced alcoholic relapse model.
# This model is based on the fact that taking drugs or alcohol capable of leading to dependence is associated with a number of environmental stimuli (auditory, olfactory, visual) which are themselves likely to lead to a relapse.
# Briefly, the experiments were carried out in conditioning chambers equipped with 2 levers allowing the distribution of water or of alcohol.
# 24 male Wistar rats were used. The animals are trained to self-administer ethanol at 10% by volume during the course of daily sessions lasting 30 minutes.
# During the conditioning phase, the animals are trained to distinguish between the availability of alcohol and of water. Stimulus 1 (orange extract) is the signal for availability of alcohol and each pressing of lever No.1 results in conditioned stimulus No.1 (flashing light) and the immediate distribution of alcohol (30 μl). Furthermore, lever No.2 remains unused during the “alcohol sessions” throughout the experiment.
# Stimulus n° 2 (anise extract) will give the signal for availability of water during the “water sessions” and each pressing of lever No.2 results in the presentation of conditioned stimulus No.2 (constant light) and the distribution of water (30 μl). […]
# [3] = system: alcohol consumption following alcohol deprivation; conditions: alcohol-dependent rats; cited from earlier work
Structure (SMILES),effect on alcohol consumption after deprivation (consumption curve versus control) [1],difference in area under curve versus control group N2/O2 [1],area under curve of total ethanol consumption [1] [g/kg*day],"number of presses on the lever delivering the alcohol following exposure to stimulus-1, compared to control N2/O2 50%/50% [2]",effect on increase in alcohol consumption following alcohol deprivation [3]
[Xe] [xenon],reduction in alcohol consumption,difference of two units,14.28±1.3,significant reduction,
CC(=O)NCCCS(=O)(=O)O [acamprosate],,,,,a reduction was noted in detrimental effects
"[N-]=[N+]=O [N2O, nitrous oxide]",reduces this alcohol consumption to a much lesser extent,1,15.34±1.3,no significant effect,
